# Data taken from patent EP4725508A1, “LIGAND-DRUG CONJUGATE HAVING FREE PAYLOAD RECOVERY UNIT” (RemeGen Co., Ltd., priority 2024, dated 2025).
# Square brackets hold non-standard residues; d marks the D form. Peptide text beside a SMILES is read from it. * marks the point of attachment. Dolaproine = CO[C@@H]([C@@H]1CCCN1)[C@@H](C)C(=O)O; Dil = CC[C@H](C)[C@H](NC)[C@@H](CC(=O)O)OC; X1 = C[C@@H](N*)[C@@H](O)c1ccccc1; NMeV = CN[C@H](C(=O)O)C(C)C
# How the values were obtained:
# [1] = test system: HCC1954; experiment: Cell killing activity; type: cell-based
# [2] = test system: OVCAR3; experiment: Cell killing activity; type: cell-based
# [3] = test system: CHOK1; experiment: Cell killing activity; type: cell-based
# [4] = molecular target: humanized antibody ABC3320 (Heavy chain: SEQ ID NO: 163; Light chain: SEQ ID NO: 164); experiment: Biacore determination, binding affinity with free MMAE; details: antibody immobilized with ProA probe; free MMAE 50-1.85 nM
# Protocol: (§1) Antibody immobilization: 20 µg/mL of antibody was immobilized onto the chip surface using a ProA probe; Binding: Antigen MMAE concentrations were 50, 16.7, 5.5, 1.85, and 0 nM. The flow rate was set at 30 µL/min, and the contact time was 600 s; Dissociation: The chip was washed with HEPES buffer for 300 s. Regeneration: Regeneration was performed with 10 mM Glycine-HCl.
# [5] = molecular target: chimeric antibody No. 1; experiment: as above; set-up: species or system mouse; details: antibody immobilized with ProA probe; free MMAE 50-1.85 nM
# Protocol: as §1
# [6] = molecular target: chimeric antibody No. 44; experiment: as above; set-up: species or system mouse; details: antibody immobilized with ProA probe; free MMAE 50-1.85 nM
# Protocol: as §1
# [7] = molecular target: chimeric antibody No. 62 (VH SEQ ID NO: 1, VL SEQ ID NO: 5); experiment: as above; set-up: species or system mouse; details: antibody immobilized with ProA probe; free MMAE 50-1.85 nM
# Protocol: as §1
# [8] = molecular target: chimeric antibody No. 69; experiment: as above; set-up: species or system mouse; details: antibody immobilized with ProA probe; free MMAE 50-1.85 nM
# Protocol: as §1
# [9] = molecular target: chimeric antibody No. 74; experiment: as above; set-up: species or system mouse; details: antibody immobilized with ProA probe; free MMAE 50-1.85 nM
# Protocol: as §1
# [10] = molecular target: chimeric antibody No. 89; experiment: as above; set-up: species or system mouse; details: antibody immobilized with ProA probe; free MMAE 50-1.85 nM
# Protocol: as §1
# [11] = molecular target: chimeric antibody No. 92; experiment: as above; set-up: species or system mouse; details: antibody immobilized with ProA probe; free MMAE 50-1.85 nM
# Protocol: as §1
# [12] = molecular target: chimeric antibody No. 93; experiment: as above; set-up: species or system mouse; details: antibody immobilized with ProA probe; free MMAE 50-1.85 nM
# Protocol: as §1
# [13] = test system: chimeric antibody No. 62 (VH SEQ ID NO: 1, VL SEQ ID NO: 5); experiment: Blocking experiment (ELISA, OVA-MMAF coated); type: binding, mouse; details: MMAE+antibody; OVA-MMAF coated 200 ng/mL; antibody 100 ng/mL
# Protocol: (§2) Blocking Experiment: OVA-MMAF was coated onto ELISA plates at a concentration of 200 ng/mL and incubated at 37°C for 1 h. The plates were blocked with 5% skim milk and incubated at 37°C for 2 h. The antibody was diluted to a final concentration of 100 ng/mL. MMAE and MMAE-Linker were diluted at concentrations of 600, 200, 66.67, 22.22, 7.41, 2.47, 0.82, 0.27, 0.09, 0.03, and 0.01 nM. 50 µL MMAE + 50 µL chimeric antibody and 50 µL MMAE-Linker + 50 µL chimeric antibody were added respectively to the ELISA plates. The total volume per well was 100 µL. The plates were incubated at 37°C for 1 h. Goat Anti-Human IgG H&L (HRP) (abcam, ab6858) diluted at 1:5000 was added, incubated at 37°C for 1 h, and then subjected to TMB color development. The OD value was determined at 450 nm.
# [14] = test system: chimeric antibody No. 64 (VH SEQ ID NO: 8, VL SEQ ID NO: 12); experiment: Blocking experiment (ELISA, OVA-MMAF coated); type: binding, mouse; details: MMAE+antibody; OVA-MMAF coated 200 ng/mL; antibody 100 ng/mL
# Protocol: as §2
# [15] = test system: humanized antibody ABC3320 (Heavy chain: SEQ ID NO: 163; Light chain: SEQ ID NO: 164); experiment: Blocking experiment (ELISA, OVA-MMAF coated); type: binding; details: MMAE+ antibody; OVA-MMAF coated 200 ng/mL; antibody 100 ng/mL; control in Tables 6, 8, 10, 12
# Protocol: as §2
# (§3) Blocking Experiment: The experimental steps were the same as the above blocking experiment.
# [16] = test system: chimeric antibody No. 132 (VH SEQ ID NO: 39, VL SEQ ID NO: 43); experiment: Blocking experiment (ELISA, OVA-MMAF coated); type: binding, mouse; details: MMAE+antibody; OVA-MMAF coated 200 ng/mL; antibody 100 ng/mL
# Protocol: as §2, §3
# [17] = test system: chimeric antibody No. 133 (VH SEQ ID NO: 46, VL SEQ ID NO: 49); experiment: Blocking experiment (ELISA, OVA-MMAF coated); type: binding, mouse; details: MMAE+antibody; OVA-MMAF coated 200 ng/mL; antibody 100 ng/mL
# Protocol: as §2, §3
# [18] = test system: chimeric antibody No. 92 (VH SEQ ID NO: 28, VL SEQ ID NO: 32); experiment: Blocking experiment (ELISA, OVA-MMAF coated); type: binding, mouse; details: MMAE+antibody; OVA-MMAF coated 200 ng/mL; antibody 100 ng/mL
# Protocol: as §2, §3
# [19] = test system: chimeric antibody No. 93 (VH SEQ ID NO: 35, VL SEQ ID NO: 38); experiment: Blocking experiment (ELISA, OVA-MMAF coated); type: binding, mouse; details: MMAE+antibody; OVA-MMAF coated 200 ng/mL; antibody 100 ng/mL
# Protocol: as §2, §3
# [20] = test system: chimeric antibody No. J4 (VH SEQ ID NO: 21, VL SEQ ID NO: 25); experiment: Blocking experiment (ELISA, OVA-MMAF coated); type: binding, mouse; details: MMAE+antibody; OVA-MMAF coated 200 ng/mL; antibody 100 ng/mL
# Protocol: as §2, §3
smiles,measurement,setting,value
"CC[C@H](C)[C@@H]([C@@H](CC(=O)N1CCC[C@H]1[C@H](OC)[C@@H](C)C(=O)N[C@H](C)[C@@H](O)c1ccccc1)OC)N(C)C(=O)[C@@H](NC(=O)[C@@H](NC)C(C)C)C(C)C [MMAE, monomethyl auristatin E] (H-[NMeV]V[Dil][Dolaproine]-X1)",MIR (%),[1],60.95%
same,IC50,[1]; Homo sapiens,0.31 nM
same,MIR (%),[2],3.69%
same,IC50,"[2]; Homo sapiens, OVCAR-3",0.31 nM
same,MIR (%),[3],83.94%
same,IC50,"[3]; Cricetulus griseus, CHO-K1",34.9 nM
same,Kd,[4],0.318 nM
same,ka,[4],100000 M⁻¹ s⁻¹
same,kd,[4],3.18e-05 s⁻¹
same,Kd,[5],1.78 nM
same,ka,[5],53500 M⁻¹ s⁻¹
same,kd,[5],9.52e-05 s⁻¹
same,Kd,[6],1.78 nM
same,ka,[6],326000 M⁻¹ s⁻¹
same,kd,[6],0.00058 s⁻¹
same,Kd,[7],0.741 nM
same,ka,[7],105000 M⁻¹ s⁻¹
same,kd,[7],7.78e-05 s⁻¹
same,Kd,[8],2.14 nM
same,ka,[8],70200 M⁻¹ s⁻¹
same,kd,[8],0.00015 s⁻¹
same,Kd,[9],2.14 nM
same,ka,[9],84400 M⁻¹ s⁻¹
same,kd,[9],0.00018 s⁻¹
same,Kd,[10],2.11 nM
same,ka,[10],61600 M⁻¹ s⁻¹
same,kd,[10],0.00013 s⁻¹
same,Kd,[11],2.66 nM
same,ka,[11],67300 M⁻¹ s⁻¹
same,kd,[11],0.000179 s⁻¹
same,Kd,[12],2.81 nM
same,ka,[12],85700 M⁻¹ s⁻¹
same,kd,[12],0.000241 s⁻¹
same,IC50,[13],1.43 nM
same,IC50,[14],4.76 nM
same,IC50,[15],1.37 nM
same,IC50,[16],1.32 nM
same,IC50,[17],1.59 nM
same,IC50,[18],83.8 nM
same,IC50,[19],54.7 nM
same,IC50,[20],1.89 nM
